Assay results: patent publication US8846682B2, “Compound suitable for the treatment of synucleopathies” (Neuropore Therapies, Inc., priority 2009, dated 2014)

Columns and labels:
[1] = test system: neuronal cells infected with LV-SYN; experiment: neurite outgrowth (MAP2 antibody) in neuronal cells expressing high levels of SYN; assay type: cell-based; details: 0.1 μM; FIG. 6
Description: For the neuronal cell based assays, the neuroblastoma line B103 will be used. […] To infect the neural cells with LV vectors, multiples of infections (MOI) of 0.1, 1 or 5 (based on TU/ml on 293T cells) will be used. After 4-5 days in vitro, the % of transgene-expressing cells will be analyzed. The B103 cells will be maintained at 37° C., 5% CO2 in Dulbecco's modified eagle medium (DMEM, high glucose) supplemented with 10% fetal bovine serum (Irvine Scientific, Irvine, Calif.) and 1% v/v penicillin/streptomycin. For analysis of SYN aggregation cell homogenates will be analyzed by immunoblot with antibodies against SYN and in coverslips by immunocytochemistry. For evaluation of neurite outgrowth coverslips will be immunostained with an antibody against MAP2 and analyzed with a digital Olympus microscope and the Image Quant System.

[2] = test system: neuronal cells infected with LV-SYN; experiment: FLIPR assay of Ca++ levels (Flou-4) in neuronal cells infected with LV-SYN; assay type: cell-based

CCCCNC(=O)C(Cc1c[nH]c2ccccc12)NC(=O)c1cnc(N2CCNCC2)s1 (stereo not drawn) [NPT200-5]
effect on neurite length extension and cellular morphology [1]: ameliorated the deleterious effects on neurite length extension and improved cellular morphology
improvement of Ca++ levels ([2]; 0.1 μM concentration): 50%
levels of Ca++ after treatment ([2]; 24 hrs treatment, LV-SYN cells showed 25-30% higher Ca++ than empty vector control, FIG. 7): back to baseline
